pIC50: −log10 of the molar value.
Test system: LG0567-F671-PDC KRAS tumor spheroid viability
Test: Anticancer human tumor LG0567-F671-PDC patient-derived lung adenocarcinoma cell line growth inhibition [KRAS2]
Conditions: spheroids with HUVEC and MSC; for pIC50: curve of first compound; for viability, T/C: stronger effect = lower value
How it was run: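 Combination screen of spheroid viability in tumor-cell co-cultures with endothelial (HUVEC) and mesenchymal stem cell stroma. Each agent was tested in half-log dilutions, topping at clinical Cmax or at 10 microM without a known Cmax.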

[1] = second compound 0.0316 µM, first compound 0.01 µM
[2] = second compound 0.0316 µM, first compound 0.0316 µM
[3] = second compound 0.0316 µM, first compound 0.1 µM
[4] = second compound 0.1 µM, first compound 0.01 µM
[5] = second compound 0.1 µM, first compound 0.0316 µM
[6] = second compound 0.1 µM, first compound 0.1 µM
[7] = second compound 0.316 µM, first compound 0.01 µM
[8] = second compound 0.316 µM, first compound 0.0316 µM
[9] = second compound 0.316 µM, first compound 0.1 µM
[10] = second compound 1 µM, first compound 0.01 µM
[11] = second compound 1 µM, first compound 0.0316 µM
[12] = second compound 1 µM, first compound 0.1 µM
[13] = second compound 3.16 µM, first compound 0.01 µM
[14] = second compound 3.16 µM, first compound 0.0316 µM
[15] = second compound 3.16 µM, first compound 0.1 µM
[16] = second compound 0.0316 µM, first compound 0.000316 µM
[17] = second compound 0.0316 µM, first compound 0.001 µM
[18] = second compound 0.0316 µM, first compound 0.00316 µM
[19] = second compound 0.1 µM, first compound 0.000316 µM
[20] = second compound 0.1 µM, first compound 0.001 µM
[21] = second compound 0.1 µM, first compound 0.00316 µM
[22] = second compound 0.316 µM, first compound 0.000316 µM
[23] = second compound 0.316 µM, first compound 0.001 µM
[24] = second compound 0.316 µM, first compound 0.00316 µM
[25] = second compound 1 µM, first compound 0.000316 µM
[26] = second compound 1 µM, first compound 0.001 µM
[27] = second compound 1 µM, first compound 0.00316 µM
[28] = second compound 3.16 µM, first compound 0.000316 µM
[29] = second compound 3.16 µM, first compound 0.001 µM
[30] = second compound 3.16 µM, first compound 0.00316 µM
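Further: drug exposure lasted seven days after spheroids formed for three days.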
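Wherever viability, T/C is given: 100% = DMSO vehicle control viability.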

Row | Structure (SMILES) | pIC50 (second compound 0.0316 µM) | pIC50 (second compound 0.1 µM) | pIC50 (second compound 0.316 µM) | pIC50 (second compound 1 µM) | pIC50 (second compound 3.16 µM) | viability, T/C [1] [%] | viability, T/C [2] [%] | viability, T/C [3] [%] | viability, T/C [4] [%] | viability, T/C [5] [%] | viability, T/C [6] [%] | viability, T/C [7] [%] | viability, T/C [8] [%] | viability, T/C [9] [%] | viability, T/C [10] [%] | viability, T/C [11] [%] | viability, T/C [12] [%] | viability, T/C [13] [%] | viability, T/C [14] [%] | viability, T/C [15] [%] | other results
1 | CC1COCCN1c1cc(-c2ccnn2C)c2ccnc(-c3ccn[nH]3)c2n1 (stereo unspecified) + C=CC(=O)N1CCN(c2nc(OCC3CCCN3C)nc3c2CCN(c2cccc4cccc(C)c24)C3)CC1CC#N | > 8.00 | > 8.00 | > 8.00 | > 8.00 | > 8.00 | 33.7 | 23.5 | 17.1 | 26.9 | 21.2 | 17.4 | 24.7 | 19.4 | 15.6 | 26.8 | 21.4 | 16.7 | 26.2 | 22.6 | 20.8 | viability, T/C (second compound 0.0316 µM, first compound 0.316 µM): 15.6%; viability, T/C (second compound 0.0316 µM, first compound 1 µM): 14.1%; viability, T/C (second compound 0.0316 µM, first compound 3.16 µM): 12.7%; viability, T/C (second compound 0.1 µM, first compound 0.316 µM): 12.7%; viability, T/C (second compound 0.1 µM, first compound 1 µM): 10.8%; viability, T/C (second compound 0.1 µM, first compound 3.16 µM): 10.4%; viability, T/C (second compound 0.316 µM, first compound 0.316 µM): 11.3%; viability, T/C (second compound 0.316 µM, first compound 1 µM): 12.1%; viability, T/C (second compound 0.316 µM, first compound 3.16 µM): 10.7%; viability, T/C (second compound 1 µM, first compound 0.316 µM): 13.9%; viability, T/C (second compound 1 µM, first compound 1 µM): 13.9%; viability, T/C (second compound 1 µM, first compound 3.16 µM): 13.7%; viability, T/C (second compound 3.16 µM, first compound 0.316 µM): 17.3%; viability, T/C (second compound 3.16 µM, first compound 1 µM): 13.3%; viability, T/C (second compound 3.16 µM, first compound 3.16 µM): 12.2%
2 | CC(C)n1nc(-c2ccc3oc(N)nc3c2)c2c(N)ncnc21 + C=CC(=O)N1CCN(c2nc(OCC3CCCN3C)nc3c2CCN(c2cccc4cccc(C)c24)C3)CC1CC#N | > 9.50 | > 9.50 | > 9.50 | > 9.50 | > 9.50 | 19.3 | 13.4 | 12.8 | 15.4 | 13.7 | 10.6 | 17.7 | 11.1 | 10.1 | 14.4 | 12.5 | 9.9 | 5.93 | 5.55 | 2.27 | viability, T/C [16]: 33.2%; viability, T/C [17]: 28.2%; viability, T/C [18]: 20.5%; viability, T/C [19]: 29.1%; viability, T/C [20]: 27%; viability, T/C [21]: 18.3%; viability, T/C [22]: 32.7%; viability, T/C [23]: 33.5%; viability, T/C [24]: 21.2%; viability, T/C [25]: 37.6%; viability, T/C [26]: 31.6%; viability, T/C [27]: 25.6%; viability, T/C [28]: 35%; viability, T/C [29]: 11.4%; viability, T/C [30]: 14.5%
3 | COc1cc(OC)cc(N(CCNC(C)C)c2ccc3ncc(-c4cnn(C)c4)nc3c2)c1 | – | – | – | – | – | – | – | – | – | – | – | – | – | – | – | – | – | – | – | – | viability, T/C (compound 0.316 µM): 92.2% [middle of 5 runs]
4 | Cn1ncnc1[C@H]1c2n[nH]c(=O)c3cc(F)cc(c23)N[C@@H]1c1ccc(F)cc1 + C=CC(=O)N1CCN(c2nc(OCC3CCCN3C)nc3c2CCN(c2cccc4cccc(C)c24)C3)CC1CC#N | > 9.50 | > 9.50 | > 9.50 | > 9.50 | > 9.50 | 35.6 | 32 | 29.4 | 27.4 | 27.6 | 27.9 | 25.8 | 29.6 | 30.8 | 26.7 | 26.1 | 24.9 | 16.1 | 10.8 | 9.1 | viability, T/C [16]: 44.2%; viability, T/C [17]: 41.6%; viability, T/C [18]: 36.3%; viability, T/C [19]: 34%; viability, T/C [20]: 28.7%; viability, T/C [21]: 37.9%; viability, T/C [22]: 34%; viability, T/C [23]: 35.5%; viability, T/C [24]: 25.3%; viability, T/C [25]: 41.2%; viability, T/C [26]: 32.9%; viability, T/C [27]: 35.3%; viability, T/C [28]: 14.8%; viability, T/C [29]: 16.5%; viability, T/C [30]: 15.4%
